Data on two molecules can be found in patent US20120165244A1, “METHODS FOR BINDING LEWIS Y ANTIGEN” (priority 2008, published 2012).

In one experiment the test system is E. coli DH5α. In words: Bacterial agglutination, FITC-labeled E. coli DH5α. The note with it: 0.2 M mannose or 5 mM EDTA. The method, then: (§1) K. pneumoniae and E. coli DH5α (BCRC) were washed twice in 0.1 M sodium bicarbonate buffer (pH 9.6) and incubated with 0.1 mg/mL fluorescein isothiocyanate (FITC) at 37° C. in the dark. Each of 20 μg/mL of rTMD1, non-tagged rTMD1, mammalian rTMD1, and recombinant TM domains 2 and 3 (rTMD23) was co-incubated with FITC-labeled bacteria (1×10^5CFU/mL) in buffer (20 mM Tris, pH 7.4, 0.15 M NaCl, 5 mM CaCl2, 1 mg/mL BSA) with or without 0.2 M mannose or 5 mM EDTA. Samples were individually placed on a glass slide and fluorescently-labeled bacteria were observed microscopically to evaluate agglutination.

Experiment [1] can be described thus: LPS binding assay (coated wells). The arrangement: species or system E. coli. The method, then: K. pneumoniae (3×10^5 CFU/well), E. coli O111:B4 smooth-type LPS (5 μg/well), or bovine serum albumin (BSA, 5 μg/well) in 100 μL of bicarbonate buffer (pH 9.6) were coated onto wells of high-binding microtiter plate (Corning Costar, Cambridge, Mass.). Nonspecific binding was blocked with binding buffer (20 mM Tris-HCl, pH 7.4, 0.15 M NaCl, 5 mM CaCl2) containing 50 mg/mL BSA. Various concentrations of rTMD proteins without or with CD14 (10 μg/mL; R&D Systems) in binding buffer containing 1 mg/mL BSA were added to wells and incubated for 2 hours. In some experiments, 0.2 M mannose, 5 mM EDTA, or Le^y were included in the binding buffer to compete with LPS and rTMD1 binding. Antibody against the c-Myc epitope of the rTMD proteins was added to wells and incubated for 2 hours, and peroxidase-labeled secondary antibody followed. Binding of rTMD proteins was detected by measuring absorbance at 450 nm.

The subject of the next experiment is K. pneumoniae. As to the kind of experiment: Bacterial agglutination, FITC-labeled K. pneumoniae. The note with it: 0.2 M mannose or 5 mM EDTA. The method, then:
as §1

In experiment [2] the test system is rTMD1. As to the kind of experiment: Effect of Le^y on the blocking effect of rTMD1 on LPS-induced signaling pathways (Western blot). The note with it: rTMD1 20 μg/mL, LPS 100 ng/mL. The experiment is classed as cell-based. The method, then:
rTMD1 (0-50 μg/mL, equals 0-2.18 nmole/mL) pre-incubated without or with Escherichia coli (E. coli) LPS (LPS O111:B4, Sigma-Aldrich) in the absence or presence of Lewis Y (Le^y; Dextra Laboratories, Reading, UK) for 30 minutes was used to stimulate THP-1 or RAW 264.7 cells. Incubation period included 15 minutes for pIκB and IκB (B-9 and C-21, Santa Cruz Biotechnology, Santa Cruz, Calif., unless otherwise noted), 20 minutes for p38 (C-20) and pp38 (D-8), 30 minutes for ERK1/2 (K-23), pERK1/2 (E-4), lamin B2 (E-3, Zymed Laboratories, San Francisco, Calif.), NF-κB p50 (C-19) and NF-κB p65 nuclear translocation (C-20), and 24 hours for iNOS expression using a specific antibody (N-20).
On the technique in general: Immunoblotting shows a protein as a band on a membrane.

Experiment [3] concerns the target T1, HMGB1 and rTMD1 interaction (Homo sapiens, UniProt P07204).
T1 construct: TMD1 (residues Ala^1-Ala^155); 6xHis (C); enterokinase cutting site (internal); made in house
As to the kind of experiment: Effect of Le^y on the binding of HMGB1 with rTMD1.

Experiment [4] has as its target T2, rTMD1 (Homo sapiens, UniProt P07204).
T2 construct: TMD1 (residues Ala^1-Ala^155); made in house
As to the kind of experiment: rTMD1 ligand analysis (AlphaScreen). Format: binding. Conditions: mammalian- or Pichia-expressed rTMD1. The protocol: Biotin-polyacrylamide (Biotin-PAA)-sugars (GlycoTech, Rockville, Mass.), rTMD1, rabbit anti-mouse IgG antibody (Zymed), mouse anti-6× His tag antibody (Abcam, Cambridge, UK), and streptavidin-coated donor and protein A conjugated acceptor beads (PerkinElmer, Boston, Mass.) were diluted with assay buffer containing 25 mM Tris (pH 7.0), 25 mM CaCl2, and 1 mg/mL BSA to appropriate concentrations. The anti-6× His tag antibody, rabbit anti-mouse IgG antibody, and acceptor beads were incubated with assay buffer for 1 hour at 25° C. before use (as the acceptor mixture). Biotin-PAA-sugars, rTMD1, and donor beads were separately added to wells of ProxiPlate-384 assay plates (PerkinElmer) and incubated at 25° C. for 1 hour. An aliquot of the acceptor mixture was then added to the wells and incubated at 25° C. for another 2 hours. The results were read on a PerkinElmer Envision instrument using the AlphaScreen program. All the procedures and incubations were carried out in the dark.

T2 sequence (P07204 19-173): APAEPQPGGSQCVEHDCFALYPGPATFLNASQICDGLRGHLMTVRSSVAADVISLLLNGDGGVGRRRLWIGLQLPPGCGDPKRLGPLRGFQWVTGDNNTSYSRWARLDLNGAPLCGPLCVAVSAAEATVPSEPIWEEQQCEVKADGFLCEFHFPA
T1 sequence (P07204 19-173): as above
T1 sequence (P09429 whole entry partner): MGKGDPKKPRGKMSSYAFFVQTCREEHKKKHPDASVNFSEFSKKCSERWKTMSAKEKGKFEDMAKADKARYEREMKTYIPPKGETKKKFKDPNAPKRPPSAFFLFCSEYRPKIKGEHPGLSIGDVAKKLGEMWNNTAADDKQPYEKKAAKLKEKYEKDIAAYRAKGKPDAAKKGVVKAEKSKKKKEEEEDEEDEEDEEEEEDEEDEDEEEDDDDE

With `O=C(O)CN(CCN(CC(=O)O)CC(=O)O)CC(=O)O` [EDTA, reference compound], the “effect on rTMD1 agglutination activity, E. coli DH5α” value with E. coli DH5α is on record as “attenuated”. The “effect on binding of rTMD1 to LPS” value in experiment [1] (0.2 M mannose or 5 mM EDTA, rTMD1 50 μg/mL) is “inhibited”. Moreover, the “effect on rTMD1 agglutination activity, K. pneumoniae” value with K. pneumoniae is on record as “attenuated”.

Take Fucα1-2Galβ1-4(Fucα1-3)GlcNAc [Le^y]: in the experiment on rTMD1 [2], the “effect on blocking effects of rTMD1 on LPS-induced ERK1/2 phosphorylation, IκBα degradation, and NF-κB p50 and p65 nuclear translocation” value was “dose-dependently neutralize”. Besides, the “effect on binding of rTMD1 with LPS” value in experiment [1] (various concentrations of Le^y, FIG. 6B) is “specifically inhibited”. In addition, the “effect on HMGB1 and rTMD1 interaction” value in experiment [3] was “could not abrogate”. The “rTMD1 affinity of carbohydrate ligand” value at rTMD1 [4] is on record as “specific ligand”.
